Data taken from patent publication US20210045385A1, “PYRIDAZINONE-SUBSTITUTED KETOXIMES AS HERBICIDES” (FMC Corporation, priority 2018, published 2021).

Legend:
Format in all cases: in vivo
[1] = tested on: ragweed (common ragweed, Ambrosia elatior); test: Test A preemergence, visual plant response rating; settings: approx. 10 days
In short: (§1)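 Ratings use a 0–100 visual scale (100 = complete control) against untreated controls, scored about 10 days after greenhouse treatment. Test chemicals were formulated in surfactant-containing non-phytotoxic solvent and applied either as soil spray after planting (preemergence) or onto one- to two-leaf, 2–10 cm plants (postemergence).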

[2] = tested on: foxtail, green (green foxtail, Setaria viridis); test: Test A preemergence, visual plant response rating; settings: approx. 10 days
In short: as §1

[3] = tested on: Italian ryegrass (Lolium multiflorum); test: Test A preemergence, visual plant response rating; settings: approx. 10 days
In short: as §1

[4] = tested on: pigweed (Amaranthus retroflexus); test: Test A preemergence, visual plant response rating; settings: approx. 10 days
In short: as §1

[5] = tested on: barnyardgrass (Echinochloa crus-galli); test: Test A preemergence, visual plant response rating; settings: approx. 10 days
In short: as §1

kochia (Kochia scoparia) [6] = test: Test A preemergence, visual plant response rating; settings: approx. 10 days
In short: as §1

[7] = tested on: galium (catchweed bedstraw, Galium aparine); test: Test A postemergence, visual plant response rating; settings: for Galium plant response rating (0 to 100 scale): 500 g ai/ha, postemergence, 0 is no effect, 100 is complete control; for Galium plant response rating: Postemergence, 125 g ai/ha, 0 to 100 scale (0 no effect, 100 complete control)
In short: as §1

corn (Zea mays) = test: Test A postemergence, visual plant response rating; settings: for Corn plant response rating (0 to 100 scale): 500 g ai/ha, postemergence, 0 is no effect, 100 is complete control; for Corn plant response rating: Postemergence, 125 g ai/ha, 0 to 100 scale (0 no effect, 100 complete control)
In short: as §1

[8] = tested on: ragweed (common ragweed, Ambrosia elatior); test: Test A postemergence, visual plant response rating; settings: for Ragweed plant response rating (0 to 100 scale): 500 g ai/ha, postemergence, 0 is no effect, 100 is complete control; for Ragweed plant response rating: Postemergence, 125 g ai/ha, 0 to 100 scale (0 no effect, 100 complete control)
In short: as §1

[9] = tested on: blackgrass (Alopecurus myosuroides); test: Test A postemergence, visual plant response rating; settings: for Blackgrass plant response rating (0 to 100 scale): 500 g ai/ha, postemergence, 0 is no effect, 100 is complete control; for Blackgrass plant response rating: Postemergence, 125 g ai/ha, 0 to 100 scale (0 no effect, 100 complete control)
In short: as §1

[10] = tested on: foxtail, green (green foxtail, Setaria viridis); test: Test A postemergence, visual plant response rating; settings: for Foxtail, Green plant response rating (0 to 100 scale): 500 g ai/ha, postemergence, 0 is no effect, 100 is complete control; for Foxtail, Green plant response rating: Postemergence, 125 g ai/ha, 0 to 100 scale (0 no effect, 100 complete control)
In short: as §1

[11] = tested on: wheat (Triticum aestivum); test: Test A postemergence, visual plant response rating; settings: for Wheat plant response rating (0 to 100 scale): 500 g ai/ha, postemergence, 0 is no effect, 100 is complete control; for Wheat plant response rating: Postemergence, 125 g ai/ha, 0 to 100 scale (0 no effect, 100 complete control)
In short: as §1

[12] = tested on: Italian ryegrass (Lolium multiflorum); test: Test A postemergence, visual plant response rating; settings: for Ryegrass, Italian plant response rating (0 to 100 scale): 500 g ai/ha, postemergence, 0 is no effect, 100 is complete control; for Ryegrass, Italian plant response rating: Postemergence, 125 g ai/ha, 0 to 100 scale (0 no effect, 100 complete control)
In short: as §1

[13] = tested on: pigweed (Amaranthus retroflexus); test: Test A postemergence, visual plant response rating; settings: for Pigweed plant response rating (0 to 100 scale): 500 g ai/ha, postemergence, 0 is no effect, 100 is complete control; for Pigweed plant response rating: Postemergence, 125 g ai/ha, 0 to 100 scale (0 no effect, 100 complete control)
In short: as §1

[14] = tested on: barnyardgrass (Echinochloa crus-galli); test: Test A postemergence, visual plant response rating; settings: for Barnyardgrass plant response rating (0 to 100 scale): 500 g ai/ha, postemergence, 0 is no effect, 100 is complete control; for Barnyardgrass plant response rating: Postemergence, 125 g ai/ha, 0 to 100 scale (0 no effect, 100 complete control)
In short: as §1

kochia (Kochia scoparia) [15] = test: Test A postemergence, visual plant response rating; settings: for Kochia plant response rating (0 to 100 scale): 500 g ai/ha, postemergence, 0 is no effect, 100 is complete control; for Kochia plant response rating: Postemergence, 125 g ai/ha, 0 to 100 scale (0 no effect, 100 complete control)
In short: as §1

[16] = tested on: sedge, umbrella (small-flower umbrella sedge, Cyperus difformis); test: Test B flooded paddy test, visual plant response rating; settings: 250 g ai/ha, Flood, applied to paddy water, 2-leaf stage, evaluated after 13 to 15 days
In short: (§2)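 Compounds added straight into paddy water of pots flooded to 3 cm, with 2-leaf-stage plants of the four species; water level held throughout.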

rice (Oryza sativa) = test: as above; settings: 250 g ai/ha, Flood, applied to paddy water, 2-leaf stage, evaluated after 13 to 15 days
In short: as §2

[17] = tested on: ducksalad (Heteranhera limosa); test: as above; settings: 250 g ai/ha, Flood, applied to paddy water, 2-leaf stage, evaluated after 13 to 15 days
In short: as §2

[18] = tested on: barnyardgrass (Echinochloa crus-galli); test: as above; settings: 250 g ai/ha, Flood, applied to paddy water, 2-leaf stage, evaluated after 13 to 15 days
In short: as §2

SMILES | Ragweed plant response rating (0 to 100 scale) ([1]; 125 g ai/ha Preemergence) | Ragweed plant response rating (0 to 100 scale) ([1]; 500 g ai/ha Preemergence) | Foxtail, Green plant response rating (0 to 100 scale) ([2]; 125 g ai/ha Preemergence) | Foxtail, Green plant response rating (0 to 100 scale) ([2]; 500 g ai/ha Preemergence) | Ryegrass, Italian plant response rating (0 to 100 scale) ([3]; 125 g ai/ha Preemergence) | Ryegrass, Italian plant response rating (0 to 100 scale) ([3]; 500 g ai/ha Preemergence) | Pigweed plant response rating (0 to 100 scale) ([4]; 125 g ai/ha Preemergence) | Pigweed plant response rating (0 to 100 scale) ([4]; 500 g ai/ha Preemergence) | Barnyardgrass plant response rating (0 to 100 scale) ([5]; 125 g ai/ha Preemergence) | Barnyardgrass plant response rating (0 to 100 scale) ([5]; 500 g ai/ha Preemergence) | Kochia plant response rating (0 to 100 scale) (kochia (Kochia scoparia) [6]; 125 g ai/ha Preemergence) | Kochia plant response rating (0 to 100 scale) (kochia (Kochia scoparia) [6]; 500 g ai/ha Preemergence) | Galium plant response rating (0 to 100 scale) [7] | Galium plant response rating [7] | Corn plant response rating (0 to 100 scale) (corn (Zea mays)) | Corn plant response rating (corn (Zea mays)) | Ragweed plant response rating (0 to 100 scale) [8] | Ragweed plant response rating [8] | Blackgrass plant response rating (0 to 100 scale) [9] | Blackgrass plant response rating [9] | other results
Cc1cccc(/C(=N\O)c2c(O)c(C)nn(C)c2=O)c1 [Compound 21] | 0 | 0 | 0 | 0 | 0 | 0 | 0 | 0 | 0 | 0 | 0 | 0 | 80 | 0 | 0 | 0 | 20 | 0 | 0 | 0 | Foxtail, Green plant response rating (0 to 100 scale) [10]: 0; Foxtail, Green plant response rating [10]: 0; Wheat plant response rating (0 to 100 scale) [11]: 0; Wheat plant response rating [11]: 0; Ryegrass, Italian plant response rating (0 to 100 scale) [12]: 20; Ryegrass, Italian plant response rating [12]: 0; Pigweed plant response rating (0 to 100 scale) [13]: 60; Pigweed plant response rating [13]: 0; Barnyardgrass plant response rating (0 to 100 scale) [14]: 0; Barnyardgrass plant response rating [14]: 0; Kochia plant response rating (0 to 100 scale) (kochia (Kochia scoparia) [15]): 10; Kochia plant response rating (kochia (Kochia scoparia) [15]): 0; Plant response rating, Sedge, Umbrella (0 to 100 scale, 0 is no effect, 100 is complete control) [16]: 0; Plant response rating, Rice (0 to 100 scale, 0 is no effect, 100 is complete control) (rice (Oryza sativa)): 0; Plant response rating, Ducksalad (0 to 100 scale, 0 is no effect, 100 is complete control) [17]: 0; Plant response rating, Barnyardgrass (0 to 100 scale, 0 is no effect, 100 is complete control) [18]: 0
CO/N=C(\c1cccc(C)c1C)c1c(O)c(C)nn(C)c1=O [Compound 22] | 50 | 90 | 0 | 0 | 10 | 30 | 30 | 90 | 0 | 0 | 10 | 10 | 60 | 60 | 0 | 0 | 50 | 40 | 40 | 10 | Foxtail, Green plant response rating (0 to 100 scale) [10]: 0; Foxtail, Green plant response rating [10]: 0; Wheat plant response rating (0 to 100 scale) [11]: 0; Wheat plant response rating [11]: 0; Ryegrass, Italian plant response rating (0 to 100 scale) [12]: 30; Ryegrass, Italian plant response rating [12]: 10; Pigweed plant response rating (0 to 100 scale) [13]: 50; Pigweed plant response rating [13]: 30; Barnyardgrass plant response rating (0 to 100 scale) [14]: 10; Barnyardgrass plant response rating [14]: 0; Kochia plant response rating (0 to 100 scale) (kochia (Kochia scoparia) [15]): 30; Kochia plant response rating (kochia (Kochia scoparia) [15]): 20; Plant response rating, Sedge, Umbrella (0 to 100 scale, 0 is no effect, 100 is complete control) [16]: 0; Plant response rating, Rice (0 to 100 scale, 0 is no effect, 100 is complete control) (rice (Oryza sativa)): 0; Plant response rating, Ducksalad (0 to 100 scale, 0 is no effect, 100 is complete control) [17]: 0; Plant response rating, Barnyardgrass (0 to 100 scale, 0 is no effect, 100 is complete control) [18]: 0
CO/N=C(/c1cccc(C)c1C)c1c(O)c(C)nn(C)c1=O [Compound 23] | 60 | 90 | 0 | 50 | 40 | 90 | 30 | 80 | 0 | 20 | 0 | 20 | 60 | 50 | 0 | 0 | 50 | 40 | 50 | 20 | Foxtail, Green plant response rating (0 to 100 scale) [10]: 0; Foxtail, Green plant response rating [10]: 0; Wheat plant response rating (0 to 100 scale) [11]: 0; Wheat plant response rating [11]: 0; Ryegrass, Italian plant response rating (0 to 100 scale) [12]: 50; Ryegrass, Italian plant response rating [12]: 30; Pigweed plant response rating (0 to 100 scale) [13]: 80; Pigweed plant response rating [13]: 20; Barnyardgrass plant response rating (0 to 100 scale) [14]: 0; Barnyardgrass plant response rating [14]: 0; Kochia plant response rating (0 to 100 scale) (kochia (Kochia scoparia) [15]): 30; Kochia plant response rating (kochia (Kochia scoparia) [15]): 10; Plant response rating, Sedge, Umbrella (0 to 100 scale, 0 is no effect, 100 is complete control) [16]: 0; Plant response rating, Rice (0 to 100 scale, 0 is no effect, 100 is complete control) (rice (Oryza sativa)): 0; Plant response rating, Ducksalad (0 to 100 scale, 0 is no effect, 100 is complete control) [17]: 0; Plant response rating, Barnyardgrass (0 to 100 scale, 0 is no effect, 100 is complete control) [18]: 0
CCO/N=C(/c1cccc(C)c1C)c1c(O)c(C)nn(C)c1=O [Compound 24] | 30 | 60 | 20 | 60 | 10 | 50 | 20 | 40 | 0 | 10 | 0 | 0 | 60 | 50 | 0 | 0 | 60 | 30 | 40 | 10 | Foxtail, Green plant response rating (0 to 100 scale) [10]: 20; Foxtail, Green plant response rating [10]: 0; Wheat plant response rating (0 to 100 scale) [11]: 0; Wheat plant response rating [11]: 0; Ryegrass, Italian plant response rating (0 to 100 scale) [12]: 40; Ryegrass, Italian plant response rating [12]: 10; Pigweed plant response rating (0 to 100 scale) [13]: 60; Pigweed plant response rating [13]: 30; Barnyardgrass plant response rating (0 to 100 scale) [14]: 30; Barnyardgrass plant response rating [14]: 0; Kochia plant response rating (0 to 100 scale) (kochia (Kochia scoparia) [15]): 20; Kochia plant response rating (kochia (Kochia scoparia) [15]): 0; Plant response rating, Sedge, Umbrella (0 to 100 scale, 0 is no effect, 100 is complete control) [16]: 0; Plant response rating, Rice (0 to 100 scale, 0 is no effect, 100 is complete control) (rice (Oryza sativa)): 0; Plant response rating, Ducksalad (0 to 100 scale, 0 is no effect, 100 is complete control) [17]: 0; Plant response rating, Barnyardgrass (0 to 100 scale, 0 is no effect, 100 is complete control) [18]: 0
